ChEMBL document CHEMBL5291721, “A preclinical secondary pharmacology resource illuminates target-adverse drug reaction associations of marketed drugs” (Nat Commun, 2023)

Legend:
Adenosine receptor A3 = molecular target: T1, Adenosine receptor A3 (Homo sapiens, UniProt P0DMS8)
T1 sequence (P0DMS8 whole entry): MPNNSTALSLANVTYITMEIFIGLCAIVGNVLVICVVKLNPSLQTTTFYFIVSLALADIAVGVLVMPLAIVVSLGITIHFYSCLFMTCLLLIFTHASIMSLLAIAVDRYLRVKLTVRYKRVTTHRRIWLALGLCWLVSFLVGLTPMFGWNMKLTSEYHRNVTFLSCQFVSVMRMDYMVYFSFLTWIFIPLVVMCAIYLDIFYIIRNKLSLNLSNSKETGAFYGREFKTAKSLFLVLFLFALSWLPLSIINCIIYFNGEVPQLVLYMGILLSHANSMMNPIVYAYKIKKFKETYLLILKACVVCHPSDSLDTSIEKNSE

[1] = molecular target: Gamma-aminobutyric acid receptor subunit alpha-1 (Rattus norvegicus, UniProt P62813)
Gamma-aminobutyric acid receptor subunit alpha-1, sequence (P62813 whole entry): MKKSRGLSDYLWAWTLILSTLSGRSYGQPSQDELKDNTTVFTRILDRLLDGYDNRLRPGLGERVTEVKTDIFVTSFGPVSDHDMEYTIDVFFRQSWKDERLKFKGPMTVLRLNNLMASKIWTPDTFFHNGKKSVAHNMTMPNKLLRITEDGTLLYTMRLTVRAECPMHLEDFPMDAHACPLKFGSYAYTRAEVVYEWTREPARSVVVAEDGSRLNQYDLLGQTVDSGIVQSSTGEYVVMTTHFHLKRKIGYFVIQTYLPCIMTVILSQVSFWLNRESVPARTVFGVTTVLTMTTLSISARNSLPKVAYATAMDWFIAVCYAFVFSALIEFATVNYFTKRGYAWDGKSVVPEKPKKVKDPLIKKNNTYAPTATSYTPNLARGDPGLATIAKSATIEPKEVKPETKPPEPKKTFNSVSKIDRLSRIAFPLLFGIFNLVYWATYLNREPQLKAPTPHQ

B2 bradykinin receptor = molecular target: T2, B2 bradykinin receptor (Homo sapiens, UniProt P30411)
T2 sequence (P30411 whole entry): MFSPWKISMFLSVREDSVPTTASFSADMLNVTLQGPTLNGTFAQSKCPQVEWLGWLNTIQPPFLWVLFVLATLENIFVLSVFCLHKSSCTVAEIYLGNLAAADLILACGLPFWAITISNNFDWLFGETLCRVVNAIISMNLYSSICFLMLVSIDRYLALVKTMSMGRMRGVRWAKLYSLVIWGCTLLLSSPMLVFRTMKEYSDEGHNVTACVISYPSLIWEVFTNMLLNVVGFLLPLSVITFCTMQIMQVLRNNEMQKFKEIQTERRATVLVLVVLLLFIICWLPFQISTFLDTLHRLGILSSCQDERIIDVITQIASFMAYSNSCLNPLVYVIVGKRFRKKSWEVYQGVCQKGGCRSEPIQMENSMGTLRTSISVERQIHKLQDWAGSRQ

[2] = molecular target: Neuronal acetylcholine receptor subunit alpha-4 (Homo sapiens, UniProt P43681)
Neuronal acetylcholine receptor subunit alpha-4, sequence (P43681 whole entry): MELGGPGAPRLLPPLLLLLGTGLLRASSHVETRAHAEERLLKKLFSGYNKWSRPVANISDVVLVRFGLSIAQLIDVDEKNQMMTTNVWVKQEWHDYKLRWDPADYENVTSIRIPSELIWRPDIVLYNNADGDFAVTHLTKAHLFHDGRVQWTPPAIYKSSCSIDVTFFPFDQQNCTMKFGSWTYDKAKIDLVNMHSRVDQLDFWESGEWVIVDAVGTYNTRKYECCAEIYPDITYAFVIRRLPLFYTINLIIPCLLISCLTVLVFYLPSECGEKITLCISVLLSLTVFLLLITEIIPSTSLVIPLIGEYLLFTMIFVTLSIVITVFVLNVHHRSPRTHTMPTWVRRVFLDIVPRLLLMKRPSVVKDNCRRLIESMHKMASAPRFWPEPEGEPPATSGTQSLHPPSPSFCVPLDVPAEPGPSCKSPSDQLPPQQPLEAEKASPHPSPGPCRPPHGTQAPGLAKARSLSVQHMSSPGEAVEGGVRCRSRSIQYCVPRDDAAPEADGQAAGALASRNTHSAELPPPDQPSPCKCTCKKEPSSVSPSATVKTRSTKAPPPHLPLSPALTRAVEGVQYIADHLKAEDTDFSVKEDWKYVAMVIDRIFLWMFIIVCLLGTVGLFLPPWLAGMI

Adenosine receptor A2a = Adenosine receptor A2a (Homo sapiens, UniProt P29274)
Adenosine receptor A2a, sequence (P29274 whole entry): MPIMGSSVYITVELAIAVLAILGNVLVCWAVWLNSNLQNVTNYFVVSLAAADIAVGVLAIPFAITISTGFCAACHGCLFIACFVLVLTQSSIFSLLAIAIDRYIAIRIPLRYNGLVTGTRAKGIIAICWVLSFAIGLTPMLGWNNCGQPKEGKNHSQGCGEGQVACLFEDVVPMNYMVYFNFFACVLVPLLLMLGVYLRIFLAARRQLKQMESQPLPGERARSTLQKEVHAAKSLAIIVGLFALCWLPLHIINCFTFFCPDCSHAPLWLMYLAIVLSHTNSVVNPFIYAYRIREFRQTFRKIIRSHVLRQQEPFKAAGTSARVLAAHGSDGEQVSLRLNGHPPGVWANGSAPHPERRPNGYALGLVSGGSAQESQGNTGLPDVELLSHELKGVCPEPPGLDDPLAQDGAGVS

D(3) dopamine receptor = D(3) dopamine receptor (Homo sapiens, UniProt P35462)
D(3) dopamine receptor, sequence (P35462 whole entry): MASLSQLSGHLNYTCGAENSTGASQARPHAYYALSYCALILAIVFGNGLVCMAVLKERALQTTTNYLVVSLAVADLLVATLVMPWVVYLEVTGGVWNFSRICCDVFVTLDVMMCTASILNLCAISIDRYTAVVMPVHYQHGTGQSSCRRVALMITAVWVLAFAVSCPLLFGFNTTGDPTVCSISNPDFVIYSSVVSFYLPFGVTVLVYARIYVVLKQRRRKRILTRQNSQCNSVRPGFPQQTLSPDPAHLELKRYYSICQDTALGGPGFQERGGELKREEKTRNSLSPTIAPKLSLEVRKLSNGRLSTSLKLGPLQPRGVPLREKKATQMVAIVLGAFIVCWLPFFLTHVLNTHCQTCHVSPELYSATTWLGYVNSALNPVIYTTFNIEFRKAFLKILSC

[3] = molecular target: Voltage-dependent L-type calcium channel subunit alpha-1C (Rattus norvegicus, UniProt P22002); assay type: functional
Voltage-dependent L-type calcium channel subunit alpha-1C, sequence (P22002 whole entry): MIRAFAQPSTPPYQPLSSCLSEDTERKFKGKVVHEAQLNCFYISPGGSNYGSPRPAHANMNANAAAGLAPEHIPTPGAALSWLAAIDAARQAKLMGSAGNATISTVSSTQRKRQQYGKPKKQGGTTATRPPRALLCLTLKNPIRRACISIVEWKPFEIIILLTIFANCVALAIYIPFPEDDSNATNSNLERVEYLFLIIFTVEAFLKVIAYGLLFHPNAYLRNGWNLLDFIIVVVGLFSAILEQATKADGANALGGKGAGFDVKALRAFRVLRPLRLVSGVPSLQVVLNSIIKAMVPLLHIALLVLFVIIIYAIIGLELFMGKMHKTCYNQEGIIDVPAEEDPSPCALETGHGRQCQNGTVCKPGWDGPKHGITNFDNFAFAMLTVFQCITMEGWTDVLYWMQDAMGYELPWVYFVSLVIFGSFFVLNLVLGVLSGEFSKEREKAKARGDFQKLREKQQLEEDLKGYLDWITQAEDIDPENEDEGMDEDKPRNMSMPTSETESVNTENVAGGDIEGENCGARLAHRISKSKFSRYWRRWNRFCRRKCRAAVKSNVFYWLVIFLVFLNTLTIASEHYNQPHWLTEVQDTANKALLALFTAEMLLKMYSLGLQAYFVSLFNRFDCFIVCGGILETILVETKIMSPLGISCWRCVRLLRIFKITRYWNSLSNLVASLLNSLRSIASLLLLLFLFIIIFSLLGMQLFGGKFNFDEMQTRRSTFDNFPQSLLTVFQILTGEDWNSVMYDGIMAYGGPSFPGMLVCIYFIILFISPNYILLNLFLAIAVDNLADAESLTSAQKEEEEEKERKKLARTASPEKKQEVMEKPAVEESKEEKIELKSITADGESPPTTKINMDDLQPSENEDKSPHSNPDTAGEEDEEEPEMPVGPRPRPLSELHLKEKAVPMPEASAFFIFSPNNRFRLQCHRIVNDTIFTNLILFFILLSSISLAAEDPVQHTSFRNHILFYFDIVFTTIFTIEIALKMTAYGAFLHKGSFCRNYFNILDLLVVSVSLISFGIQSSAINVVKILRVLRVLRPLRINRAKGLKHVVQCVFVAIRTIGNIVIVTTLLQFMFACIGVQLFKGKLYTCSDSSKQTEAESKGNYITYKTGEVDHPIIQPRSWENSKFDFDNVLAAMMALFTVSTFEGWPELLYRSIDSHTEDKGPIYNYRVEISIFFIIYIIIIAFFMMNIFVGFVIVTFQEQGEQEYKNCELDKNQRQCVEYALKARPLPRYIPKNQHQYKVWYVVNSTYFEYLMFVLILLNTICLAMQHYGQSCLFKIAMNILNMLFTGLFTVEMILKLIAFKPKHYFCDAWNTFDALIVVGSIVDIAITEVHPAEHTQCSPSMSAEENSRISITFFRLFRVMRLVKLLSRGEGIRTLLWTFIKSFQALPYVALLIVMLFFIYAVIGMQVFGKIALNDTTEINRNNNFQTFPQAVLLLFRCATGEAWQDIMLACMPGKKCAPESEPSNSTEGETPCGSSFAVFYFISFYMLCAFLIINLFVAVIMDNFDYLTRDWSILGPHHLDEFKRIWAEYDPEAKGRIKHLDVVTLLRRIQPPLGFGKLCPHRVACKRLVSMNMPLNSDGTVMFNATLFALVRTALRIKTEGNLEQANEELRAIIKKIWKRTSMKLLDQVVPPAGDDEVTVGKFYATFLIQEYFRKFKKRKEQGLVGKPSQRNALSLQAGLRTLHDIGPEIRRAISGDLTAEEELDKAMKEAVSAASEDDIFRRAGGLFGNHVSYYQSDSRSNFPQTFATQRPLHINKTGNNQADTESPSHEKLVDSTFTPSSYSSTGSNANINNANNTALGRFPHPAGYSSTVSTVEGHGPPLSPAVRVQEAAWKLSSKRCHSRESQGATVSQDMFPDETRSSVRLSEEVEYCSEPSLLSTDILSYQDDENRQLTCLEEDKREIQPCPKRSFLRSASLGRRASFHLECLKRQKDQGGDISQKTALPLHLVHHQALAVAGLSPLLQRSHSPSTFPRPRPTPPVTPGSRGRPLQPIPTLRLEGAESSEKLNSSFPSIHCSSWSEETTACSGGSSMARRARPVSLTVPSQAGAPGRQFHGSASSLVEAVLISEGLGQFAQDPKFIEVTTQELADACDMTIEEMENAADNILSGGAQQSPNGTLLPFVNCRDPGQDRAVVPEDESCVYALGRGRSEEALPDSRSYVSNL

[4] = molecular target: T3, 5-hydroxytryptamine receptor 3A (Homo sapiens, UniProt P46098); assay type: functional
T3 sequence (P46098 whole entry): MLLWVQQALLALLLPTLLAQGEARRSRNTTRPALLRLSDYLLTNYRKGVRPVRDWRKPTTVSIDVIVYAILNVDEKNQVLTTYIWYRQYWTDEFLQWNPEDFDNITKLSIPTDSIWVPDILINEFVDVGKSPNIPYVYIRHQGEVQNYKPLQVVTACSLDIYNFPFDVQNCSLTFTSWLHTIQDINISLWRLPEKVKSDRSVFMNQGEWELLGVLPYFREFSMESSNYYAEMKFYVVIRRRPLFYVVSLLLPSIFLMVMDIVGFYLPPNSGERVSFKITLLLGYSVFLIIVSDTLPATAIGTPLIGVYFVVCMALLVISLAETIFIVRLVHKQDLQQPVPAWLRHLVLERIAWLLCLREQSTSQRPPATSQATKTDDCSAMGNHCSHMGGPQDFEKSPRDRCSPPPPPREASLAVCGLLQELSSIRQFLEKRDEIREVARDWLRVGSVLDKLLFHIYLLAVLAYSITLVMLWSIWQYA

Cannabinoid receptor 1 = Cannabinoid receptor 1 (Homo sapiens, UniProt P21554)
Cannabinoid receptor 1, sequence (P21554 whole entry): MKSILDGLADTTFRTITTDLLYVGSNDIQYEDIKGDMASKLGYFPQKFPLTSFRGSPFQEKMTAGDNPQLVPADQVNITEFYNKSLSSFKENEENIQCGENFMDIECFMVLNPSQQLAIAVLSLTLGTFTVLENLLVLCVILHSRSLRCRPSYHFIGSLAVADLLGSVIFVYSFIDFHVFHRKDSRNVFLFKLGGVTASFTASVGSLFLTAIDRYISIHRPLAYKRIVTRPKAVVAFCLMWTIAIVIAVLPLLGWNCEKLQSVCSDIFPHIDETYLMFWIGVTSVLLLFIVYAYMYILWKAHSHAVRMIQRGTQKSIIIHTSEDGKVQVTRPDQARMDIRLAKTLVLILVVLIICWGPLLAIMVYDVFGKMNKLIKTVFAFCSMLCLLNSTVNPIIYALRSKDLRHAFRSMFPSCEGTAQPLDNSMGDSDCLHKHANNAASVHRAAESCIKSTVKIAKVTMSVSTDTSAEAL

Adenosine receptor A1 = molecular target: T4, Adenosine receptor A1 (Homo sapiens, UniProt P30542)
T4 sequence (P30542 whole entry): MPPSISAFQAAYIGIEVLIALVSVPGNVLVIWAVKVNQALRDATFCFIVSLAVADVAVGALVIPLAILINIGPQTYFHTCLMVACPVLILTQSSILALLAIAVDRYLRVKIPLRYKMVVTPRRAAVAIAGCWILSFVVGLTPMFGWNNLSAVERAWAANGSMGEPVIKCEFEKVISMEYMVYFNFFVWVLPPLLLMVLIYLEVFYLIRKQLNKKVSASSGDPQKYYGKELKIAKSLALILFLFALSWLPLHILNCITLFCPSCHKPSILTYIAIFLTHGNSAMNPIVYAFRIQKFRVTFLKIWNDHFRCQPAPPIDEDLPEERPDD

Progesterone receptor = molecular target: T5, Progesterone receptor (Homo sapiens, UniProt P06401); assay type: functional
T5 sequence (P06401 whole entry): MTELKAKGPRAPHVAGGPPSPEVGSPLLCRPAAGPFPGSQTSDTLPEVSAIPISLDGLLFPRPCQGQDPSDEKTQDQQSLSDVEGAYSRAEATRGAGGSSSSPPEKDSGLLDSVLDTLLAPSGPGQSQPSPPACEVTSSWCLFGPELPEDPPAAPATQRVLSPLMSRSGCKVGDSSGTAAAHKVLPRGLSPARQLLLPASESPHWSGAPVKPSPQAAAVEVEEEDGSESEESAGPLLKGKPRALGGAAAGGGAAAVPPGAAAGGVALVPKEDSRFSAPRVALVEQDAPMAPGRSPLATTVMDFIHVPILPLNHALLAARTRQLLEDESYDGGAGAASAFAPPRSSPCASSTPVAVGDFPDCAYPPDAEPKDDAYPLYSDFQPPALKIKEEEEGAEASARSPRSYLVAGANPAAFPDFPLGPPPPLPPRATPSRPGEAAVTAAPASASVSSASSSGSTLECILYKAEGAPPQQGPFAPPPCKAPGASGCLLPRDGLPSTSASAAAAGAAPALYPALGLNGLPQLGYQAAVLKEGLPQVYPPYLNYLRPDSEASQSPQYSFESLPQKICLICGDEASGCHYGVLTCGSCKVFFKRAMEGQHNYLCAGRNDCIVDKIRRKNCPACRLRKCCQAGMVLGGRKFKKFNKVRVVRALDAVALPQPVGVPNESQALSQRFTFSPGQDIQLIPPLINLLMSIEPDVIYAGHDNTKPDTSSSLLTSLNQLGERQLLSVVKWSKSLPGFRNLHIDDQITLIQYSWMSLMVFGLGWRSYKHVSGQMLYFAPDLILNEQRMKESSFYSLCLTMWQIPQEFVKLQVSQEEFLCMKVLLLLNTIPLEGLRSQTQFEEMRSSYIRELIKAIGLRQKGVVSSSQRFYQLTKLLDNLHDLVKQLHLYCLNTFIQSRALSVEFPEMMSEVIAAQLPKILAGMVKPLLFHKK
Further: assay procedure not described here.

Cc1cc2c(cc1S(N)(=O)=O)S(=O)(=O)CCC2
AC50 (Adenosine receptor A3): > 30 µM
AC50 [1]: > 30 µM

C[C@H](N[C@@H](CCc1ccccc1)C(=O)O)C(=O)N1Cc2ccccc2C[C@H]1C(=O)O
AC50 (Adenosine receptor A3): > 30 µM
AC50 [1]: > 30 µM

O=C(O)[C@@H]1C[C@@H](O)CN1
AC50 (Adenosine receptor A3): > 30 µM
AC50 [1]: > 30 µM

CC1(C)S[C@@H]2[C@H](/N=C/N3CCCCCC3)C(=O)N2[C@H]1C(=O)O [AMDINOCILLIN]
AC50 (Adenosine receptor A3): > 30 µM
AC50 [1]: > 30 µM

CC(=O)[C@]1(N)Cc2c(O)c3c(c(O)c2[C@@H](O[C@H]2C[C@H](O)[C@H](O)CO2)C1)C(=O)c1ccccc1C3=O [AMRUBICIN]
AC50 (Adenosine receptor A3): > 30 µM
AC50 [1]: > 30 µM

CC(=O)OC[C@H]1O[C@@H](n2ncc(=O)[nH]c2=O)[C@H](OC(C)=O)[C@@H]1OC(C)=O [AZARIBINE]
AC50 (Adenosine receptor A3): > 30 µM
AC50 [1]: > 30 µM

O=C(/C=C/c1cccc(S(=O)(=O)Nc2ccccc2)c1)NO [BELINOSTAT]
AC50 (B2 bradykinin receptor): > 30 µM
AC50 [2]: > 10 µM
AC50 (Adenosine receptor A2a): > 30 µM
AC50 [1]: > 30 µM
AC50 (D(3) dopamine receptor): > 30 µM
AC50 [3]: > 10 µM
AC50 [4]: > 30 µM
AC50 (Cannabinoid receptor 1): > 10 µM
AC50 (Adenosine receptor A1): > 30 µM

CC(O)(CS(=O)(=O)c1ccc(F)cc1)C(=O)Nc1ccc(C#N)c(C(F)(F)F)c1 (centres undefined) [BICALUTAMIDE]
AC50 (B2 bradykinin receptor): > 30 µM
AC50 [2]: > 30 µM
AC50 (Adenosine receptor A2a): > 30 µM
AC50 [1]: > 30 µM
AC50 (Progesterone receptor): > 30 µM
AC50 (D(3) dopamine receptor): > 10 µM
AC50 [3]: > 10 µM
AC50 [4]: > 10 µM
AC50 (Cannabinoid receptor 1): > 10 µM
AC50 (Adenosine receptor A1): > 30 µM

CC(C)(C)NC(=O)N[C@H](C(=O)N1C[C@H]2[C@@H]([C@H]1C(=O)NC(CC1CCC1)C(=O)C(N)=O)C2(C)C)C(C)(C)C (some centres undefined) [BOCEPREVIR]
AC50 (Adenosine receptor A3): > 30 µM
AC50 [1]: > 30 µM

NC[C@H]1CC[C@H](C(=O)Oc2ccc(CCC(=O)O)cc2)CC1 [CETRAXATE]
AC50 [1]: > 30 µM
AC50 (D(3) dopamine receptor): > 30 µM
AC50 [4]: > 30 µM

Cc1cn([C@H]2O[C@@H](CO)[C@H](O)[C@H]2F)c(=O)[nH]c1=O [CLEVUDINE]
AC50 (Adenosine receptor A3): > 30 µM
AC50 [1]: > 30 µM

N#Cc1ccc(Oc2ccc3c(c2)COB3O)cc1 [CRISABOROLE]
AC50 (Adenosine receptor A3): > 30 µM
AC50 [1]: > 30 µM

CC(=O)O[C@]1(C(C)=O)CC[C@H]2[C@@H]3C=C(Cl)C4=CC(=O)[C@@H]5C[C@@H]5[C@]4(C)[C@H]3CC[C@@]21C [CYPROTERONE ACETATE]
AC50 (B2 bradykinin receptor): > 30 µM
AC50 [2]: > 10 µM
AC50 (Adenosine receptor A2a): > 30 µM
AC50 [1]: > 30 µM
AC50 (D(3) dopamine receptor): > 30 µM
AC50 [3]: > 10 µM
AC50 [4]: > 30 µM
AC50 (Cannabinoid receptor 1): > 10 µM
AC50 (Adenosine receptor A1): > 30 µM

CC(=O)[C@H]1CC[C@H]2[C@@H]3C=CC4=CC(=O)CC[C@@]4(C)[C@@H]3CC[C@]12C [DYDROGESTERONE]
AC50 (Adenosine receptor A3): > 30 µM
AC50 [1]: > 30 µM

CC(O)(P(=O)(O)O)P(=O)(O)O [ETIDRONIC ACID]
AC50 (Adenosine receptor A3): > 30 µM
AC50 [1]: > 30 µM

C[C@@H]1C[C@H]2[C@@H]3C[C@H](F)C4=CC(=O)C=C[C@]4(C)[C@@]3(F)[C@@H](O)C[C@]2(C)[C@@]1(OC(=O)c1ccco1)C(=O)SCF [FLUTICASONE FUROATE]
AC50 (B2 bradykinin receptor): > 10 µM
AC50 [2]: > 10 µM
AC50 (Adenosine receptor A2a): > 10 µM
AC50 [1]: > 30 µM
AC50 (D(3) dopamine receptor): > 30 µM
AC50 [3]: > 10 µM
AC50 [4]: > 30 µM
AC50 (Cannabinoid receptor 1): 16.3 µM
AC50 (Adenosine receptor A1): > 10 µM

Cc1ccc(S(=O)(=O)NC(=O)NC2CCCCC2)cc1 [GLYCYCLAMIDE]
AC50 (Adenosine receptor A3): 12.7 µM
AC50 [1]: > 30 µM

CN1CCCN(C(c2ccccc2)c2ccc(Cl)cc2)CC1 (centres undefined) [HOMOCHLORCYCLIZINE]
AC50 (Adenosine receptor A3): > 30 µM
AC50 [1]: > 30 µM

CC(=O)OCC(=O)[C@@]1(O)CC[C@H]2[C@@H]3CCC4=CC(=O)CC[C@]4(C)[C@H]3[C@@H](O)C[C@@]21C [HYDROCORTISONE ACETATE]
AC50 (Adenosine receptor A3): > 30 µM
AC50 [1]: > 30 µM

CC(COc1ccccc1)NC(C)C(O)c1ccc(O)cc1 (centres undefined) [ISOXSUPRINE]
AC50 (Adenosine receptor A3): > 30 µM
AC50 [1]: > 30 µM

O=C(CCC/C=C\C[C@@H]1[C@@H](CC[C@@H](O)CCc2ccccc2)[C@H](O)C[C@@H]1O)OCCCCO[N+](=O)[O-] [LATANOPROSTENE BUNOD]
AC50 [1]: > 30 µM

Cc1oc(=O)oc1COC(=O)[C@@H]1N2C(=O)[C@@H](NC(=O)[C@H](N)c3ccccc3)[C@H]2SC1(C)C [LENAMPICILLIN]
AC50 (Adenosine receptor A3): > 30 µM
AC50 [1]: > 30 µM

COC(=O)C[C@](O)(CCCC(C)(C)O)C(=O)O[C@@H]1C(OC)=C[C@]23CCCN2CCc2cc4c(cc2[C@H]13)OCO4 [OMACETAXINE MEPESUCCINATE]
AC50 [1]: > 30 µM

C[C@@H]1C[C@H]2[C@@H]3C[C@H](F)C4=CC(=O)C=C[C@]4(C)[C@H]3[C@@H](O)C[C@]2(C)[C@@]1(O)C(=O)CO [PARAMETHASONE]
AC50 (Adenosine receptor A3): > 30 µM
AC50 [1]: > 30 µM

CCC[C@H](N[C@@H](C)C(=O)N1[C@H](C(=O)O)C[C@@H]2CCCC[C@@H]21)C(=O)OCC [PERINDOPRIL]
AC50 (Adenosine receptor A3): > 30 µM
AC50 [1]: > 30 µM

NNCCc1ccccc1 [PHENELZINE]
AC50 (Adenosine receptor A3): > 30 µM
AC50 [1]: > 30 µM

N[C@@H](Cc1ccccc1)C(=O)O [PHENYLALANINE]
AC50 (Adenosine receptor A3): > 30 µM
AC50 [1]: > 30 µM

CCCn1cnc2c1c(=O)n(CCCCC(C)=O)c(=O)n2C [PROPENTOFYLLINE]
AC50 (Adenosine receptor A3): > 30 µM
AC50 [1]: > 30 µM

COc1cc(C)c2c(Oc3cccc(C(F)(F)F)c3)c(OC)cc(NC(C)CCCN)c2n1 (centres undefined) [TAFENOQUINE]
AC50 [1]: > 30 µM

O=S1(=O)CCN(CN2CCS(=O)(=O)NC2)CN1 [TAUROLIDINE]
AC50 [2]: > 30 µM
AC50 (Adenosine receptor A2a): > 30 µM
AC50 [1]: > 30 µM
AC50 (Progesterone receptor): > 30 µM
AC50 (D(3) dopamine receptor): 27 µM
AC50 [4]: > 30 µM

CCCSc1nc(N[C@@H]2C[C@H]2c2ccc(F)c(F)c2)c2nnn([C@@H]3C[C@H](OCCO)[C@@H](O)[C@H]3O)c2n1 [TICAGRELOR]
AC50 (Adenosine receptor A3): 0.106 µM
AC50 [1]: > 30 µM

COc1ccc2c(C(=S)N(C)CC(=O)O)cccc2c1C(F)(F)F [TOLRESTAT]
AC50 [1]: > 30 µM
